Test results: the supplement of paper PMC11451515

Tested on: P12-Ichikawa
Assay: cell viability relative to DMSO control; higher = less cytotoxic
Settings: 48 h
In short: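 Viability was expressed as a per-plate percentage of DMSO wells, with cell-free wells as background. Leukemia cells (NOMO1 or SEM at 500 cells/well, P12-Ichikawa at 1000 cells/well) were adapted for at least four passages in each medium and seeded in 1536-well plates (5 μl). Library compounds in DMSO were pin-dosed over an 11-point threefold series from 47 μM to 0.79 nM, and CellTiter-Glo One luminescence was read after 48 h at 37°C.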

[1] = HPLM + 10% dialyzed FBS, 0.000781 µM
[2] = HPLM + 10% dialyzed FBS, 0.00234 µM
[3] = HPLM + 10% dialyzed FBS, 0.00702 µM
[4] = HPLM + 10% dialyzed FBS, 0.0211 µM
[5] = HPLM + 10% dialyzed FBS, 0.0632 µM
[6] = HPLM + 10% dialyzed FBS, 0.19 µM
[7] = HPLM + 10% dialyzed FBS, 0.569 µM
[8] = HPLM + 10% dialyzed FBS, 1.71 µM
[9] = HPLM + 10% dialyzed FBS, 5.12 µM
[10] = HPLM + 10% dialyzed FBS, 15.4 µM
[11] = HPLM + 10% dialyzed FBS, 46.1 µM
[12] = RPMI 5 mM glucose + 10% FBS, 0.000781 µM
[13] = RPMI 5 mM glucose + 10% FBS, 0.00234 µM
[14] = RPMI 5 mM glucose + 10% FBS, 0.00702 µM
[15] = RPMI 5 mM glucose + 10% FBS, 0.0211 µM
[16] = RPMI 5 mM glucose + 10% FBS, 0.0632 µM
[17] = RPMI 5 mM glucose + 10% FBS, 0.19 µM
[18] = RPMI 5 mM glucose + 10% FBS, 0.569 µM
[19] = RPMI 5 mM glucose + 10% FBS, 1.71 µM
[20] = RPMI 5 mM glucose + 10% FBS, 5.12 µM
[21] = RPMI 5 mM glucose + 10% FBS, 15.4 µM
[22] = RPMI 5 mM glucose + 10% FBS, 46.1 µM
[23] = RPMI 5 mM glucose + 10% dialyzed FBS, 0.000781 µM
[24] = RPMI 5 mM glucose + 10% dialyzed FBS, 0.00234 µM
[25] = RPMI 5 mM glucose + 10% dialyzed FBS, 0.00702 µM
[26] = RPMI 5 mM glucose + 10% dialyzed FBS, 0.0211 µM
[27] = RPMI 5 mM glucose + 10% dialyzed FBS, 0.0632 µM
[28] = RPMI 5 mM glucose + 10% dialyzed FBS, 0.19 µM
[29] = RPMI 5 mM glucose + 10% dialyzed FBS, 0.569 µM
[30] = RPMI 5 mM glucose + 10% dialyzed FBS, 1.71 µM
[31] = RPMI 5 mM glucose + 10% dialyzed FBS, 5.12 µM
[32] = RPMI 5 mM glucose + 10% dialyzed FBS, 15.4 µM
[33] = RPMI 5 mM glucose + 10% dialyzed FBS, 46.1 µM

Compound	cell viability [1]	cell viability [2]	cell viability [3]	cell viability [4]	cell viability [5]	cell viability [6]	cell viability [7]	cell viability [8]	cell viability [9]	cell viability [10]	cell viability [11]	cell viability [12]	cell viability [13]	cell viability [14]	cell viability [15]	cell viability [16]	cell viability [17]	cell viability [18]	cell viability [19]	cell viability [20]	cell viability [21]	cell viability [22]	cell viability [23]	cell viability [24]	cell viability [25]	cell viability [26]	cell viability [27]	cell viability [28]	cell viability [29]	cell viability [30]	cell viability [31]	cell viability [32]	cell viability [33]
C[C@H]1CCC/C=C/C2C[C@H](O)C[C@H]2[C@H](O)/C=C/C(=O)O1 (stereo partly specified)	90.4%	102%	94.8%	70.4%	32.8%	18.7%	9.39%	4.66%	2.87%	2.17%	2.02%	74%	75.3%	81.5%	60.1%	10.9%	9.73%	6.57%	4.48%	1.69%	1.14%	1.83%	104%	81.9%	86.1%	62.7%	12.7%	12.8%	6.09%	4.16%	3.23%	2.71%	1.83%
CNC(=O)c1c(F)cccc1Nc1nc(Nc2cc3c(cc2OC)CCN3C(=O)CN(C)C)nc2[nH]ccc12	91.4%	97%	110%	110%	111%	109%	112%	108%	81.5%	87.4%	51%	112%	113%	105%	123%	114%	122%	120%	110%	113%	113%	51.3%	110%	117%	120%	119%	129%	122%	121%	118%	110%	103%	43.6%
